pIC50: −log10 of the molar value. Several values for one entry are separate records, joined by “and”; a condition that tells them apart may be missing. Equal values may be shown once.
Experiments:
[1] = target: SfurOBP2 (Sogatella furcifera, UniProt V5T759); assay: biochemical; assay type: binding
Method in brief: (§1)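 1-NPN displacement assay with odorant competitor at 2–20 µM; protein and probe both 2.0 µM at pH 7.4. Ki is calculated from IC50 using the protein/1-NPN dissociation constant.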

[2] = target: SfurOBP1 (Sogatella furcifera, UniProt V5T8N5); assay: biochemical; assay type: binding; details: for Fluorescence competitive binding assay, fluorescence intensity: OBP1, three replicate columns
Chain of SfurOBP1 (V5T8N5 entry or part of it): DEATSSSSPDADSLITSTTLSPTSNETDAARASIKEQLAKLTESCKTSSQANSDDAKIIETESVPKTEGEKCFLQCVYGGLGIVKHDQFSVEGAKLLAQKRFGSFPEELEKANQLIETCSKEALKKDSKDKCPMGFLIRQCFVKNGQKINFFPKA
Method in brief: as §1

[3] = target: SfurOBP3 (Sogatella furcifera, UniProt V5T818); assay: biochemical; assay type: binding; details: for Fluorescence competitive binding assay, fluorescence intensity: OBP3, three replicate columns
Chain of SfurOBP3 (V5T818 entry or part of it): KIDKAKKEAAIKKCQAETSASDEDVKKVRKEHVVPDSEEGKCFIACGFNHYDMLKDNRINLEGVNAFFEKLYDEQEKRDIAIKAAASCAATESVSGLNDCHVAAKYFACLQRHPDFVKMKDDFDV
Method in brief: as §1

[4] = target: SfurOBP11 (Sogatella furcifera, UniProt V5T6E3); assay: biochemical; assay type: binding
Chain of SfurOBP11 (V5T6E3 entry or part of it): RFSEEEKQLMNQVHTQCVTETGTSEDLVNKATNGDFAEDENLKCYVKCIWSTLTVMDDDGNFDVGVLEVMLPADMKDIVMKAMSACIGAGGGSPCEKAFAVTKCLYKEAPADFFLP
Method in brief: as §1

[5] = system: S. furcifera adults; assay: Y-tube olfactometer behavioral trials; assay type: in vivo, Sogatella furcifera; details: odorant 50 µL/L vs hexane; adults
Method in brief: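 Single S. furcifera adults (2 days post-emergence, starved 0.5 h) chose between odorant (100 µL of 50 µL/L on filter paper) and hexane control in a glass Y-tube, charcoal-filtered humidified air 300 mL/min per arm, 25 ± 1 °C, 50% RH. Choice scored if insect passed half an arm and stayed >1 min within 10 min; 45 insects per compound, chi-squared test.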

Chain of SfurOBP2 (V5T759 entry or part of it): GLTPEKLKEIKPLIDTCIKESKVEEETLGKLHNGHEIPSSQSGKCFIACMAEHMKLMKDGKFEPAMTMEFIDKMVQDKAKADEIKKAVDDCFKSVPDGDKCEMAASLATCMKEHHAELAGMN

`OC1CCCCC1` [cyclohexanol] was tested, and the pIC50 [1] was < 4.70, the “Fluorescence competitive binding assay, OBP2 (raw fluorescence reading)” value ([1]; ligand concentration 2 (unit not given), replicate column 1 of 3) was 20258 and the “Fluorescence competitive binding assay, OBP2 (raw fluorescence reading)” value ([1]; ligand concentration 2 (unit not given), replicate column 2 of 3) was 18511. The “Fluorescence competitive binding assay, OBP2 (raw fluorescence reading)” value ([1]; ligand concentration 2 (unit not given), replicate column 3 of 3) was 18768, the “Fluorescence competitive binding assay, OBP2 (raw fluorescence reading)” value ([1]; ligand concentration 4 (unit not given), replicate column 1 of 3) was 17006 and the “Fluorescence competitive binding assay, OBP2 (raw fluorescence reading)” value ([1]; ligand concentration 4 (unit not given), replicate column 2 of 3) was 17312. For the same compound, the “Fluorescence competitive binding assay, OBP2 (raw fluorescence reading)” value ([1]; ligand concentration 4 (unit not given), replicate column 3 of 3) was 19296, the “Fluorescence competitive binding assay, OBP2 (raw fluorescence reading)” value ([1]; ligand concentration 6 (unit not given), replicate column 1 of 3) was 17760 and the “Fluorescence competitive binding assay, OBP2 (raw fluorescence reading)” value ([1]; ligand concentration 6 (unit not given), replicate column 2 of 3) was 19185. For the same compound, the “Fluorescence competitive binding assay, OBP2 (raw fluorescence reading)” value ([1]; ligand concentration 6 (unit not given), replicate column 3 of 3) was 18943, the “Fluorescence competitive binding assay, OBP2 (raw fluorescence reading)” value ([1]; ligand concentration 8 (unit not given), replicate column 1 of 3) was 16983 and the “Fluorescence competitive binding assay, OBP2 (raw fluorescence reading)” value ([1]; ligand concentration 8 (unit not given), replicate column 2 of 3) was 16921. For the same compound, the “Fluorescence competitive binding assay, OBP2 (raw fluorescence reading)” value ([1]; ligand concentration 8 (unit not given), replicate column 3 of 3) was 18381, the “Fluorescence competitive binding assay, OBP2 (raw fluorescence reading)” value ([1]; ligand concentration 10 (unit not given), replicate column 1 of 3) was 16551 and the “Fluorescence competitive binding assay, OBP2 (raw fluorescence reading)” value ([1]; ligand concentration 10 (unit not given), replicate column 2 of 3) was 16106. The “Fluorescence competitive binding assay, OBP2 (raw fluorescence reading)” value ([1]; ligand concentration 10 (unit not given), replicate column 3 of 3) was 17116, the “Fluorescence competitive binding assay, OBP2 (raw fluorescence reading)” value ([1]; ligand concentration 12 (unit not given), replicate column 1 of 3) was 12653 and the “Fluorescence competitive binding assay, OBP2 (raw fluorescence reading)” value ([1]; ligand concentration 12 (unit not given), replicate column 2 of 3) was 16542. The “Fluorescence competitive binding assay, OBP2 (raw fluorescence reading)” value ([1]; ligand concentration 12 (unit not given), replicate column 3 of 3) was 15003, the “Fluorescence competitive binding assay, OBP2 (raw fluorescence reading)” value ([1]; ligand concentration 14 (unit not given), replicate column 1 of 3) was 14815 and the “Fluorescence competitive binding assay, OBP2 (raw fluorescence reading)” value ([1]; ligand concentration 14 (unit not given), replicate column 2 of 3) was 15068. For the same compound, the “Fluorescence competitive binding assay, OBP2 (raw fluorescence reading)” value ([1]; ligand concentration 14 (unit not given), replicate column 3 of 3) was 14859, the “Fluorescence competitive binding assay, OBP2 (raw fluorescence reading)” value ([1]; ligand concentration 16 (unit not given), replicate column 1 of 3) was 15306 and the “Fluorescence competitive binding assay, OBP2 (raw fluorescence reading)” value ([1]; ligand concentration 16 (unit not given), replicate column 2 of 3) was 13071. The “Fluorescence competitive binding assay, OBP2 (raw fluorescence reading)” value ([1]; ligand concentration 16 (unit not given), replicate column 3 of 3) was 13046, the “Fluorescence competitive binding assay, OBP2 (raw fluorescence reading)” value ([1]; ligand concentration 18 (unit not given), replicate column 1 of 3) was 15697 and the “Fluorescence competitive binding assay, OBP2 (raw fluorescence reading)” value ([1]; ligand concentration 18 (unit not given), replicate column 2 of 3) was 16234. The “Fluorescence competitive binding assay, OBP2 (raw fluorescence reading)” value ([1]; ligand concentration 18 (unit not given), replicate column 3 of 3) was 16085, the “Fluorescence competitive binding assay, OBP2 (raw fluorescence reading)” value ([1]; ligand concentration 20 (unit not given), replicate column 1 of 3) was 15959 and the “Fluorescence competitive binding assay, OBP2 (raw fluorescence reading)” value ([1]; ligand concentration 20 (unit not given), replicate column 2 of 3) was 14904. For the same compound, the “Fluorescence competitive binding assay, OBP2 (raw fluorescence reading)” value ([1]; ligand concentration 20 (unit not given), replicate column 3 of 3) was 13122, the pIC50 [2] was < 4.70 and the “Fluorescence competitive binding assay, fluorescence intensity” value ([2]; ligand concentration 2 (μM)) was 5844 and 5673 and 6371. The “Fluorescence competitive binding assay, fluorescence intensity” value ([2]; ligand concentration 4 (μM)) was 9311 and 8690 and 9932, the “Fluorescence competitive binding assay, fluorescence intensity” value ([2]; ligand concentration 6 (μM)) was 6443 and 7058 and 7039 and the “Fluorescence competitive binding assay, fluorescence intensity” value ([2]; ligand concentration 8 (μM)) was 6837 and 7313 and 7729. For the same compound, the “Fluorescence competitive binding assay, fluorescence intensity” value ([2]; ligand concentration 10 (μM)) was 8238 and 7697 and 7236, the “Fluorescence competitive binding assay, fluorescence intensity” value ([2]; ligand concentration 12 (μM)) was 6489 and 6472 and 7355 and the “Fluorescence competitive binding assay, fluorescence intensity” value ([2]; ligand concentration 14 (μM)) was 7069 and 6354 and 7092. The “Fluorescence competitive binding assay, fluorescence intensity” value ([2]; ligand concentration 16 (μM)) was 6030 and 6324 and 7260, the “Fluorescence competitive binding assay, fluorescence intensity” value ([2]; ligand concentration 18 (μM)) was 9356 and 7906 and 7474 and the “Fluorescence competitive binding assay, fluorescence intensity” value ([2]; ligand concentration 20 (μM)) was 8046 and 8689 and 8368. The pIC50 [3] was < 4.70, the “Fluorescence competitive binding assay, fluorescence intensity” value ([3]; ligand concentration 2) was 73467 and 78493 and 77746 and the “Fluorescence competitive binding assay, fluorescence intensity” value ([3]; ligand concentration 4) was 78452 and 70026 and 82856. For the same compound, the “Fluorescence competitive binding assay, fluorescence intensity” value ([3]; ligand concentration 6) was 79407 and 77940 and 78195, the “Fluorescence competitive binding assay, fluorescence intensity” value ([3]; ligand concentration 8) was 71546 and 83168 and 84706 and the “Fluorescence competitive binding assay, fluorescence intensity” value ([3]; ligand concentration 10) was 73852 and 75338 and 78193. For the same compound, the “Fluorescence competitive binding assay, fluorescence intensity” value ([3]; ligand concentration 12) was 65457 and 72548 and 71432, the “Fluorescence competitive binding assay, fluorescence intensity” value ([3]; ligand concentration 14) was 60072 and 60001 and 71583 and the “Fluorescence competitive binding assay, fluorescence intensity” value ([3]; ligand concentration 16) was 61622 and 57596 and 60550. For the same compound, the “Fluorescence competitive binding assay, fluorescence intensity” value ([3]; ligand concentration 18) was 75606 and 79879 and 73633, the “Fluorescence competitive binding assay, fluorescence intensity” value ([3]; ligand concentration 20) was 63397 and 61447 and 55682 and the pIC50 [4] was < 4.70. For the same compound, the “Fluorescence intensity, fluorescence competitive binding assay, OBP11” value (“Fluorescence intensity … OBP11” for short) ([4]; ligand concentration 2, replicate 1) was 24375, the “Fluorescence intensity … OBP11” value ([4]; ligand concentration 2, replicate 2) was 24650 and the “Fluorescence intensity … OBP11” value ([4]; ligand concentration 2, replicate 3) was 24939. For the same compound, the “Fluorescence intensity … OBP11” value ([4]; ligand concentration 4, replicate 1) was 24494, the “Fluorescence intensity … OBP11” value ([4]; ligand concentration 4, replicate 2) was 24823 and the “Fluorescence intensity … OBP11” value ([4]; ligand concentration 4, replicate 3) was 24654. For the same compound, the “Fluorescence intensity … OBP11” value ([4]; ligand concentration 6, replicate 1) was 24316, the “Fluorescence intensity … OBP11” value ([4]; ligand concentration 6, replicate 2) was 24699 and the “Fluorescence intensity … OBP11” value ([4]; ligand concentration 6, replicate 3) was 24500. For the same compound, the “Fluorescence intensity … OBP11” value ([4]; ligand concentration 8, replicate 1) was 24760, the “Fluorescence intensity … OBP11” value ([4]; ligand concentration 8, replicate 2) was 24220 and the “Fluorescence intensity … OBP11” value ([4]; ligand concentration 8, replicate 3) was 24499. For the same compound, the “Fluorescence intensity … OBP11” value ([4]; ligand concentration 10, replicate 1) was 22885, the “Fluorescence intensity … OBP11” value ([4]; ligand concentration 10, replicate 2) was 23988 and the “Fluorescence intensity … OBP11” value ([4]; ligand concentration 10, replicate 3) was 24498. For the same compound, the “Fluorescence intensity … OBP11” value ([4]; ligand concentration 12, replicate 1) was 23691, the “Fluorescence intensity … OBP11” value ([4]; ligand concentration 12, replicate 2) was 23225 and the “Fluorescence intensity … OBP11” value ([4]; ligand concentration 12, replicate 3) was 24428. For the same compound, the “Fluorescence intensity … OBP11” value ([4]; ligand concentration 14, replicate 1) was 22556, the “Fluorescence intensity … OBP11” value ([4]; ligand concentration 14, replicate 2) was 23123 and the “Fluorescence intensity … OBP11” value ([4]; ligand concentration 14, replicate 3) was 22199. The “Fluorescence intensity … OBP11” value ([4]; ligand concentration 16, replicate 1) was 21391, the “Fluorescence intensity … OBP11” value ([4]; ligand concentration 16, replicate 2) was 22093 and the “Fluorescence intensity … OBP11” value ([4]; ligand concentration 16, replicate 3) was 21606. For the same compound, the “Fluorescence intensity … OBP11” value ([4]; ligand concentration 18, replicate 1) was 23329, the “Fluorescence intensity … OBP11” value ([4]; ligand concentration 18, replicate 2) was 23356 and the “Fluorescence intensity … OBP11” value ([4]; ligand concentration 18, replicate 3) was 23748. For the same compound, the “Fluorescence intensity … OBP11” value ([4]; ligand concentration 20, replicate 1) was 23863, the “Fluorescence intensity … OBP11” value ([4]; ligand concentration 20, replicate 2) was 23927 and the “Fluorescence intensity … OBP11” value ([4]; ligand concentration 20, replicate 3) was 23769. For the same compound, the “number of insects choosing hexane arm” value [5] was 12, the “number of insects choosing volatilies arm” value [5] was 7 and the “number of insects failed (no choice)” value [5] was 21.

— paper PMC6409085, “Three odorant-binding proteins are involved in the behavioral response of Sogatella furcifera to rice plant volatiles” (PeerJ, 2019)
